Experimental data reported in patent publication US6667387B1, “HCV core peptides” (priority 1992, dated 2003).
* marks the point of attachment. Biotin = O=C1N[C@H]2[C@H](CS[C@H]2CCCCC(=O)*)N1

Columns and labels:
Type in all cases: binding, human
[1] = tested on: antibodies in antisera from HIV-2 infected persons; experiment: ELISA with HIV-2 antibody-positive sera (biotinylated peptides on streptavidin- or avidin-coated plates, unbiotinylated peptides coated directly); settings: for number borderline / number negative / number positive / percent borderline / percent negative / percent positive: Table 17, HIV-2 positive sera, 21 tested
Procedure: (§1) Where peptides were to be coated directly, stock solutions of the peptides were diluted in sodium carbonate buffer, pH 9.6 and used to coat polystyrene microtiter plates at a peptide concentration of 2 to 5 micrograms per milliliter for 1 hour at 37° C.
(§2) In cases where biotinylated peptides were to be evaluated, plates were first coated with streptavidin in sodium carbonate buffer, pH 9.6 at a concentration of 3 micrograms per milliliter for 1 hour at 37° C. The plates were then washed to remove excess, unbound protein. A working solution of the biotinylated peptide at 1 microgram per milliliter in sodium carbonate buffer was then added to the wells of the microtiter plate and incubated for 1 hours at 37° C.
(§3) Once the plates had been coated with antigen, any remaining free binding sites on the plastic were blocked with casein. After washing, a dilution of the appropriate antisera, usually 1:100, was added to the wells of the plates and incubated for 1 hour at 37° C.
(§4) After washing to remove unbound material, specific antibody binding was detected by incubating the plates with goat anti-human immunoglobulin antibodies conjugated to the enzyme horseradish peroxidase. Following removal of unbound conjugate by washing, a solution containing H2O2 and 3,3′,5,5′-tetramethylbenzidine was added.
(§5) Reactions were stopped after a suitable interval by addition of sulfuric acid. […] Absorbance measurements were made at a wavelength of 450 nanometers and all data are expressed as an optical density value at this wavelength.
The biotinylated peptides were loaded onto microtiter plates which had been coated with streptavidin. Antibody binding to these peptides was compared to antibody binding to the unibiotinylated peptides which were coated directly onto microtiter plates. It is evident that the biotinylated peptides from the HIV-1 or HIV-2 transmembrane proteins bound to streptavidin are recognized very well by antisera from HIV-1 or HIV-2 infected persons respectively. This is in contrast to the unbiotinylated versions of these peptides coated directly onto the polystyrene plates.
(§6) To determine how well biotinylated peptides would function in a mixture when bound to streptavidin- or avidin-coated plates, two mixtures were made of the N-terminally biotinylated versions of the HIV-1 peptides TM-HIV-1 (hereabove referred to as 1a.1) and V3-nm (hereabove referred to as 1b.4), the HIV-2 peptide TM-HIV-2 (hereabove referred to as 2a), and the hepatitis C virus peptides II, IX, and XVIII. Mixture A contained each of the six biotinylated peptides at a concentration of 1 microgram per milliliter (6 micrograms per milliliter peptide, total) while in mixture B, each peptide was present at a concentration of 0.1 microgram per milliliter (0.6 microgram per milliliter peptide, total). The individual peptides were coated at a concentration of 1 microgram per milliliter. For purposes of comparison, mixtures A and B were also coated directly onto the wells of a microtiter plate. Samples from HIV-1, HIV-2, and HCV-seropositive donors were tested and compared to sera from seronegative blood donors. A cut-off absorbance value of 0.250 was used to determine whether a reaction was positive or negative. Absorbance values equal or greater than 0.250 were considered positive while absorbance values below this value were considered negative.
Two glycine residues were added at the N-terminus of each peptide to serve as a spacer and a biotin was coupled to the α-amino group of the resulting N-terminal glycine. The peptides were bound to streptavidin and coated in the wells of microwell plates. HIV-2 antibody-positive sera were used to evaluate these two peptides in an ELISA.

[2] = ELISA with seronegative / negative control sera (specificity)
Outline: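 Specificity readout is OD at 450 nm (HRP goat anti-human Ig, TMB/H2O2, sulfuric acid stop), with ≥0.250 counted positive. Seronegative donor sera (typically 1:100, 1 h, 37° C) were applied to casein-blocked wells coated with peptide directly or via streptavidin capture of biotinylated peptide.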

[3] = tested on: antibodies in antisera from HIV-1 infected persons; experiment: ELISA with HIV-1 antibody-positive sera (biotinylated peptides on streptavidin- or avidin-coated plates, unbiotinylated peptides coated directly)
Procedure: as §1, §2, §3, §4, §5
Experiments were performed to evaluate antibody recognition of short, 10 amino acid-long, N-acetylated peptides corresponding to other contained within the transmembrane proteins of HIV-1 and HIV-2. […] The peptides used for the comparison were as follows:
Antibody binding to these peptides was compared to antibody binding to the unibiotinylated peptides which were coated directly onto microtiter plates.
In order to evaluate antibody recognition of these two peptides, the peptides were bound individually to streptavidin-coated microtiter plates and tested using a panel of antisera from HIV-1 seropositive donors.
as §6
A spacer consisting of two glycine residues was added to the amino terminus.

[4] = tested on: antibodies in sera from HCV-seropositive donors; experiment: ELISA with HCV antibody-positive sera (biotinylated peptides on streptavidin- or avidin-coated plates, unbiotinylated peptides coated directly); settings: Table 8, Avidin
Outline: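 Read-out is OD at 450 nm after HRP goat anti-human Ig and TMB development, following 1 h at 37° C. with seropositive or negative sera diluted 1:100 (or 20-fold). Antigen was either unbiotinylated peptide adsorbed on plastic (pH 9.6 carbonate, 2–5 or 3 μg/ml) or biotinylated peptide at 1 μg/ml captured on streptavidin-coated wells, with casein blocking.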

[5] = Table 1, serum 53-3, HIV-2 positive
[6] = Table 1, serum 1400, HIV-2 positive
[7] = Table 1, serum AG, HIV-2 positive
[8] = Table 1, serum 180, seronegative donor
[9] = Table 1, serum 194, seronegative donor
[10] = Table 1, serum 195, seronegative donor
[11] = Table 1, serum 204, seronegative donor
[12] = Table 1, serum 0724, HIV-1 positive
[13] = Table 1, serum PL, HIV-1 positive
[14] = Table 1, serum VE, HIV-1 positive
[15] = Table 1, serum YEMO, HIV-1 positive
[16] = Table 1, serum mm, HIV-1 positive

| Substance | optical density (450 nm) [1, 5] | optical density (450 nm) [1, 6] | optical density (450 nm) [1, 7] | optical density (450 nm) [2, 8] | optical density (450 nm) [2, 9] | optical density (450 nm) [2, 10] | optical density (450 nm) [2, 11] | optical density (450 nm) [3, 12] | optical density (450 nm) [3, 13] | optical density (450 nm) [3, 14] | optical density (450 nm) [3, 15] | optical density (450 nm) [3, 16] | number borderline [1] | number negative [1] | number positive [1] | percent borderline [1] [%] | percent negative [1] [%] | percent positive [1] [%] | further results |
| --- | --- | --- | --- | --- | --- | --- | --- | --- | --- | --- | --- | --- | --- | --- | --- | --- | --- | --- | --- |
| Bio-Gly-Gly-Gly-Ser-Trp-Gly-Cys-Ala-Phe-Arg-Gln-Val-Cys-NH2 (Biotin-GGGSWGCAFRQVC-NH2; cysteine pairing not given here) [TM-HIV-2 Bio] | 2.365 | 1.982 | 2.323 | 0.000 | 0.000 | 0.000 | 0.000 | 0.000 | 0.000 | 0.000 | 0.000 | 0.000 |  |  |  |  |  |  | optical density (450 nm) ([1]; Table 8, serum 1400 (HIV-2), Avidin): 1.781; optical density (450 nm) ([1]; Table 8, serum AG (HIV-2), Avidin): 2.065; optical density (450 nm) ([2]; Table 8, serum 1782 (blood donor), Avidin): 0.057; optical density (450 nm) ([2]; Table 8, serum 1784 (blood donor), Avidin): 0.046; optical density (450 nm) ([2]; Table 8, serum 1785 (blood donor), Avidin): 0.047; optical density (450 nm) ([2]; Table 8, serum 1794 (blood donor), Avidin): 0.090; optical density (450 nm) ([3]; Table 8, serum 3990 (HIV-1), Avidin): 0.054; optical density (450 nm) ([3]; Table 8, serum DV (HIV-1), Avidin): 0.048; optical density (450 nm) ([3]; Table 8, serum PL (HIV-1), Avidin): 0.051; optical density (450 nm) ([3]; Table 8, serum YS (HIV-1), Avidin): 0.046; optical density (450 nm) ([4]; serum 8243 (HCV)): 0.109; optical density (450 nm) ([4]; serum 8247 (HCV)): 0.048; optical density (450 nm) ([4]; serum 8248 (HCV)): 0.046; optical density (450 nm) ([4]; serum 8269 (HCV)): 0.049; optical density (450 nm) ([4]; serum 8273 (HCV)): 0.050; optical density (450 nm) ([4]; serum 8278 (HCV)): 0.045; optical density (450 nm) ([4]; serum 8285 (HCV)): 0.163; optical density (450 nm) ([4]; serum 8290 (HCV)): 0.047; optical density (450 nm) ([4]; serum 8291 (HCV)): 0.050 |
| Ac-Tyr-Asn-Lys-Arg-Lys-Arg-Ile-His-Ile-Gly-Pro-Gly-Arg-Ala-Phe-Tyr-Thr-Thr-Lys-Asn-Ile-Ile-Gly-NH2 (Ac-YNKRKRIHIGPGRAFYTTKNIIG-NH2) [Peptide V3-mn] |  |  |  |  |  |  |  |  |  |  |  |  |  |  |  |  |  |  | optical density (450 nm) ([2]; Table 2, negative control): 0.063; optical density (450 nm) ([3]; Table 2, sample 266): 0.951; optical density (450 nm) ([3]; Table 2, sample 3990): 1.442; optical density (450 nm) ([3]; Table 2, sample 4436): 0.388; optical density (450 nm) ([3]; Table 2, sample 4438): 0.736; optical density (450 nm) ([3]; Table 2, sample DV): 1.314; optical density (450 nm) ([3]; Table 2, sample MM): 0.791; optical density (450 nm) ([3]; Table 2, sample OOST 4): 1.106; optical density (450 nm) ([3]; Table 2, sample OOST 6): 1.025; optical density (450 nm) ([3]; Table 2, sample OOST 8): 1 389; optical density (450 nm) ([3]; Table 2, sample PL): 0.531; optical density (450 nm) ([3]; Table 2, sample VE): 1.717; optical density (450 nm) ([3]; Table 2, sample YS): 1.442 |
| Ac-Ser-Trp-Gly-Cys-Ala-Phe-Arg-Gln-Val-Cys-NH2 (Ac-SWGCAFRQVC-NH2; cysteine pairing not given here) [TM-HIV-2, unbiotinylated N-acetylated decamer of the HIV-2 transmembrane protein] | 0.000 | 0.000 | 0.000 | 0.000 | 0.000 | 0.000 | 0.000 | 0.000 | 0.000 | 0.000 | 0.000 | 0.000 |  |  |  |  |  |  |  |
| Ac-Ile-Trp-Gly-Cys-Ser-Gly-Lys-Leu-Ile-Cys-NH2 (Ac-IWGCSGKLIC-NH2; cysteine pairing not given here) [TM-HIV-1, unbiotinylated N-acetylated decamer of the HIV-1 transmembrane protein] | 0.000 | 0.000 | 0.000 | 0.000 | 0.000 | 0.000 | 0.000 | 0.174 | 0.000 | 0.052 | 0.162 | 0.051 |  |  |  |  |  |  |  |
| Asn Lys Thr Val Leu Pro Val Thr Ile Met Ser Gly Leu Val Phe His Ser Gln Pro Ile Asn Asp (NKTVLPVTIMSGLVFHSQPIND; printed: Asn Lys Thr Val Leu Pro Val Thr Ile Met Ser Gly Leu Val Phe His Ser Gln Pro Ile Asn Asp) [Peptide V2-239, HIV-2/SIV mm 239 V3; two glycine residues at the N-terminus and biotin] |  |  |  |  |  |  |  |  |  |  |  |  | 2 | 0 | 19 | 9.5 | 0 | 90.5 |  |
| Asn Lys Thr Val Val Pro Ile Thr Leu Met Ser Gly Leu Val Phe His Ser Gln Pro Ile Asn Lys (NKTVVPITLMSGLVFHSQPINK; printed: Asn Lys Thr Val Val Pro Ile Thr Leu Met Ser Gly Leu Val Phe His Ser Gln Pro Ile Asn Lys) [Peptide V3-GB12, HIV-2 V3; two glycine residues at the N-terminus and biotin] |  |  |  |  |  |  |  |  |  |  |  |  | 0 | 0 | 21 | 0 | 0 | 100 |  |
